Earlier results as cited in patent US20220362140A1, “Novel Dental Care and Cleansing Composition” (GROUP PHARMACEUTICALS, priority 2020, published 2022).

Details: much higher concentration

For `O=BO[O-].[Na+]` [Sodium perboarate], the “Concentration that is toxic” value is given as 25%.
